Measured values taken from patent publication US8466167B2, “Compounds and compositions as TLR activity modulators” (IRM LLC, priority 2008, dated 2013).
Read-outs that look alike come from different tables or passages of the source.

Target: T1, human TLR7 (Homo sapiens, UniProt Q9NYK1)
T1 construct: expressed in transfected cells; host or cells: HEK 293
T1 sequence (Q9NYK1 27-1049): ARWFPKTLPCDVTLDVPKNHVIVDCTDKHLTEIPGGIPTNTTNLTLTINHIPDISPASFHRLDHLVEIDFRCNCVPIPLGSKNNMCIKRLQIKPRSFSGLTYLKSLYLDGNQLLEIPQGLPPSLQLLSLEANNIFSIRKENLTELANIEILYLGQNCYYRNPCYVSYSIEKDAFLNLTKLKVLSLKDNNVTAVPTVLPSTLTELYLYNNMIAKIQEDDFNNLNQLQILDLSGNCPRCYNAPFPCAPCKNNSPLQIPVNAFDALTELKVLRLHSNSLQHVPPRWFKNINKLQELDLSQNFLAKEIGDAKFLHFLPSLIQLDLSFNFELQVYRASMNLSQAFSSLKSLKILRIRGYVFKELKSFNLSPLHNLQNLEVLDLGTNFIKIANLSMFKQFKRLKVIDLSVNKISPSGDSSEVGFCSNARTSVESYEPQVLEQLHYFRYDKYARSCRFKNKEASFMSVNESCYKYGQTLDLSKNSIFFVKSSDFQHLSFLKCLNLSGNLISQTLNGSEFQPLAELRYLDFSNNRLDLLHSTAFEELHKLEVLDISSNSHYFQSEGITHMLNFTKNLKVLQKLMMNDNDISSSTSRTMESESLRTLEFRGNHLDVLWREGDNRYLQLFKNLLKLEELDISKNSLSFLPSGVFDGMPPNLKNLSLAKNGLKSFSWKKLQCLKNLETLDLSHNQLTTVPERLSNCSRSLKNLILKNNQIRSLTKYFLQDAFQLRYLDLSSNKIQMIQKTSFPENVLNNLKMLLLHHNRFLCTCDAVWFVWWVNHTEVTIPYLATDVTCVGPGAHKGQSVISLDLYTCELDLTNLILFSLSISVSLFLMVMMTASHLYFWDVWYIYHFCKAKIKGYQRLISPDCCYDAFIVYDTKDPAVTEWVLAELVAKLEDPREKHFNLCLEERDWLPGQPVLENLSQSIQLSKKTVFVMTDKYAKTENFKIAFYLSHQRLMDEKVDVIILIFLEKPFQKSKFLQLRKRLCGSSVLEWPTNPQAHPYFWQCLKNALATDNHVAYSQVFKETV
Experiment: Reporter gene assay, HEK293-TLR7 (NF-kB-driven luciferase)
Type: cell-based
Protocol: Human embryonic kidney 293 (HEK 293) cells are stably transfected with human TLR7 or TLR8 and an NF-kB-driven luciferase reporter vector (pNifty-Luciferase). As a control assay, normal Hek293 transfected with pNifty-Luc are used. Cells are cultured in DMEM supplemented with 2 mM L-glutamine, 10% heart inactivated FBS, 1% penicillin and streptomycin, 2 μg/ml puromycin (InvivoGen #ant-pr-5) and 5 μg/ml of blasticidin (Invitrogen #46-1120). Bright-Glo™ Luciferase assay buffer and substrate are supplied by Promega #E263B and #E264B (assay substrate and buffer respectively). 384 well clear-bottom plates are supplied by Greiner bio-one (#789163-G) and are GNF custom bar-coded plates.
Cells are plated at 25,000 cells/well in 384-well plates in a final volume of 50 μl of media. Cells are allowed to adhere to the plates after overnight (18 hours) culture at 37° C. 5% CO2. Serially diluted experimental and positive control compounds are then dispensed to each well and incubated for 7 hours at 37° C. 5% CO2. Cells stimulated with DMSO alone also serve as negative controls. After the incubation, 30 μl of the pre-mix assay buffer and substrate buffer are added to each well according to manufacturer's instructions. The luminescence signal is read on a CLIPR machine with an integration time of 20 seconds per plate.
Dose response curves are generated for each compound and EC50 values were determined as the concentration that gives 50% of the maximal signal.

[1] = TLR-7 stimulation, read-out: Human TLR-7 EC50

SMILES	EC50 [1] [nM]	EC50 (HEK293-TLR7, read-out: EC50 in HEK293-TLR7 assay) [nM]
CCCOC(=O)Oc1ccc(CCc2cnc3c(N)nc4cc(C)ccc4c3c2)cc1 [Example 138, 4-(2-(5-amino-8-methylbenzo[f][1,7]naphthyridin-2-yl)ethyl)phenyl propyl carbonate]	213	–
Nc1nc2ccccc2c2ccc(=O)[nH]c12 [Example 15, 5-aminobenzo[f][1,7]naphthyridin-3(4H)-one]	–	24100
COc1ccc(CCc2cnc3c(N)nc4cc(C)ccc4c3c2)cc1OC [Example 178, 2-(3,4-dimethoxyphenethyl)-8-methylbenzo[f][1,7]naphthyridin-5-amine]	562	–
CCN1CCN(C(=O)c2ccc(CCc3cnc4c(N)nc5cc(C)ccc5c4c3)c(C)c2)CC1 [Example 126, (4-(2-(5-amino-8-methylbenzo[f][1,7]naphthyridin-2-yl)ethyl)-3-methylphenyl)(4-ethylpiperazin-1-yl)methanone]	275	–
COC(=O)CCc1ccc(CCc2cnc3c(N)nc4cc(C)ccc4c3c2)cc1 [Example 61, methyl 3-(4-(2-(5-amino-8-methylbenzo[f][1,7]naphthyridin-2-yl)ethyl)phenyl)propanoate]	582	–
Cc1ccc2c(c1)nc(N)c1ncc(CCc3ccc(Oc4ccccc4)cc3)cc12 [Example 46, 8-methyl-2-(4-phenoxyphenethyl)benzo[f][1,7]naphthyridin-5-amine]	347	–
Cc1ccc2c(c1)nc(N)c1ncc(CCc3ccc4[nH]ccc4c3)cc12 [Example 44, 2-(2-(1H-indol-5-yl)ethyl)-8-methylbenzo[f][1,7]naphthyridin-5-amine]	107	–

Further lines, results first:

EC50 [1] [nM]	EC50 (HEK293-TLR7, read-out: EC50 in HEK293-TLR7 assay) [nM]	SMILES
14	–	Cc1ccc2c(c1)nc(N)c1ncc(CCc3ccc(OCCN4CCOCC4)cc3C)cc12 [Example 147, 8-methyl-2-(2-methyl-4-(2-morpholinoethoxy)phenethyl)benzo[f][1,7]naphthyridin-5-amine]
24	–	Cc1ccc2c(c1)nc(N)c1ncc(CCc3ccc(CCC(C)(C)O)cc3)cc12 [Example 63, 4-(4-(2-(5-amino-8-methylbenzo[f][1,7]naphthyridin-2-yl)ethyl)phenyl)-2-methylbutan-2-ol]
35	–	Cc1ccc2c(c1)nc(N)c1ncc(CCc3ccc(CCCO)cc3)cc12 [Example 62, 3-(4-(2-(5-amino-8-methylbenzo[f][1,7]naphthyridin-2-yl)ethyl)phenyl)propan-1-ol]
